Assays:
Test in all cases: relative viability (nuclei count vs DMSO), 5 days (fraction); higher = more cells survive
Apatinib + Alpelisib = compound: N#CC1(c2ccc(NC(=O)c3cccnc3NCc3ccncc3)cc2)CCCC1 [Apatinib] + Cc1nc(NC(=O)N2CCC[C@H]2C(N)=O)sc1-c1ccnc(C(C)(C)C(F)(F)F)c1 [Alpelisib] (partner 2 µM)
Summary of the method: (§1)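 One day after seeding in 1536-well plates, lung cancer cell lines were dosed by pin tool. Dosing was either single-drug or a fixed anchor-drug dose plus five library-drug doses (not always all listed) in √10 steps. After 5 days, nuclei were stained in one fix-and-stain step and counted on 4× images, and relative viability is the nuclei count of treated wells over that of vehicle wells, given as the median of duplicate plates.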

Metformin + Foretinib = compound: CN(C)C(=N)NC(=N)N [Metformin] + COc1cc2c(Oc3ccc(NC(=O)C4(C(=O)Nc5ccc(F)cc5)CC4)cc3F)ccnc2cc1OCCCN1CCOCC1 [Foretinib] (partner 0.25 µM)
Summary of the method: as §1

Metformin + Lapatinib = compound: CN(C)C(=N)NC(=N)N [Metformin] + CS(=O)(=O)CCNCc1ccc(-c2ccc3ncnc(Nc4ccc(OCc5cccc(F)c5)c(Cl)c4)c3c2)o1 [Lapatinib] (partner 2 µM)
Summary of the method: as §1

Apatinib + Decitabine = compound: N#CC1(c2ccc(NC(=O)c3cccnc3NCc3ccncc3)cc2)CCCC1 [Apatinib] + Nc1ncn([C@H]2C[C@H](O)[C@@H](CO)O2)c(=O)n1 [Decitabine] (partner 2 µM)
Summary of the method: as §1

NCI-H460
relative viability (Apatinib + Alpelisib; first compound 0.08 µM): 0.557 | relative viability (Apatinib + Alpelisib; first compound 0.253 µM): 0.478 | relative viability (Apatinib + Alpelisib; first compound 0.8 µM): 0.475 | relative viability (Apatinib + Alpelisib; first compound 2.53 µM): 0.498 | relative viability (Apatinib + Alpelisib; first compound 8 µM): 0.479 | relative viability (Metformin + Foretinib; first compound 10 µM): 0.949 | relative viability (Metformin + Foretinib; first compound 31.62 µM): 0.998 | relative viability (Metformin + Foretinib; first compound 100 µM): 0.961 | relative viability (Metformin + Foretinib; first compound 316.23 µM): 1.02 | relative viability (Metformin + Foretinib; first compound 1000 µM): 1.03 | relative viability (Metformin + Lapatinib; first compound 31.62 µM): 1.15 | relative viability (Metformin + Lapatinib; first compound 100 µM): 0.9 | relative viability (Metformin + Lapatinib; first compound 316.23 µM): 0.849 | relative viability (Metformin + Lapatinib; first compound 1000 µM): 1.02 | relative viability (Apatinib + Decitabine; first compound 0.08 µM): 0.497 | relative viability (Apatinib + Decitabine; first compound 0.253 µM): 0.457 | relative viability (Apatinib + Decitabine; first compound 0.8 µM): 0.43 | relative viability (Apatinib + Decitabine; first compound 2.53 µM): 0.447 | relative viability (Apatinib + Decitabine; first compound 8 µM): 0.477

From the supplement of paper PMC10307832
